From patent US20240101540A1, “TARGETED PROTEIN DEGRADATION OF PARP14 FOR USE IN THERAPY” (Ribon Therapeutics, Inc., priority 2022, published 2024)
Structures can show the parent of a compound that is named as a salt.

Biological target: T1, HiBiT tagged PARP14 (Homo sapiens, UniProt Q460N5)
T1 construct: engineered to contain a HiBiT tag on both alleles of the PARP14 gene; endogenous in cells; host or cells: Jurkat cells stably transfected with LgBiT (Promega), PARP14 locus edited by CRISPR/Cas9
Assay: HiBiT assay for the degradation of PARP14 (HiBiT tagged PARP14 in LgBiT expressing Jurkat cells, 2 or 24 hours)
Format: cell-based
Conditions: Assay B (Example B): HiBiT tagged PARP14 degradation in LgBiT expressing Jurkat cells, read-out: DC50
Protocol: Jurkat cells stably transfected with LgBiT (Promega) were engineered to contain a HiBiT tag on both alleles of the PARP14 gene (Genbank Accession Number: NM_017554) via CRISPR/Cas9 editing. The HiBiT tag is an 11 amino acid tag created by Promega that associates with LgBiT protein to form the NanoLuc® tag on the C-terminus of PARP14. Clones were isolated and confirmed for the HiBiT tag via Sanger sequencing.
Degradation of PARP14 protein was assessed by measuring the luminescence of the HiBiT tag associating with the LgBiT protein as a proxy for the PARP14 protein.
Jurkat cells were diluted to 250,000 cells per mL and then added to assay plate (Corning 3574) using a Multidrop (Thermo Fisher) to add 20 μL per well of the 384 well plate, resulting in 5,000 cells per well. 20 nL of a dose response curve diluted in DMSO of each test compound was added to the cell plate using a Mosquito (TTP Labtech) and the plate was incubated at 37° C. for 2 or 24 hours. Assay plate was brought to room temperature then 5 μL per well of Live Cell Substrate (Promega) was added to the plate. Luminescence was measured on an Envision (Perkin Elmer).
The average DMSO was calculated from 32 wells containing 0.1% DMSO only in columns 12 and 24 of the assay plate. The % of DMSO values were calculated as described below: […]
The % of DMSO values were plotted as a function of compound concentration and the following 4-parameter fit was applied to derive the DC50 values:
where top, bottom, and Hill Coefficient are allowed to float. Y is the % of DMSO and X is the compound concentration.
DC50 data for the Example compounds is provided below in Table 2 (“+” is ≤0.03 μM; “++” is ≥0.03 μM).

T1 sequence (Q460N5 whole entry): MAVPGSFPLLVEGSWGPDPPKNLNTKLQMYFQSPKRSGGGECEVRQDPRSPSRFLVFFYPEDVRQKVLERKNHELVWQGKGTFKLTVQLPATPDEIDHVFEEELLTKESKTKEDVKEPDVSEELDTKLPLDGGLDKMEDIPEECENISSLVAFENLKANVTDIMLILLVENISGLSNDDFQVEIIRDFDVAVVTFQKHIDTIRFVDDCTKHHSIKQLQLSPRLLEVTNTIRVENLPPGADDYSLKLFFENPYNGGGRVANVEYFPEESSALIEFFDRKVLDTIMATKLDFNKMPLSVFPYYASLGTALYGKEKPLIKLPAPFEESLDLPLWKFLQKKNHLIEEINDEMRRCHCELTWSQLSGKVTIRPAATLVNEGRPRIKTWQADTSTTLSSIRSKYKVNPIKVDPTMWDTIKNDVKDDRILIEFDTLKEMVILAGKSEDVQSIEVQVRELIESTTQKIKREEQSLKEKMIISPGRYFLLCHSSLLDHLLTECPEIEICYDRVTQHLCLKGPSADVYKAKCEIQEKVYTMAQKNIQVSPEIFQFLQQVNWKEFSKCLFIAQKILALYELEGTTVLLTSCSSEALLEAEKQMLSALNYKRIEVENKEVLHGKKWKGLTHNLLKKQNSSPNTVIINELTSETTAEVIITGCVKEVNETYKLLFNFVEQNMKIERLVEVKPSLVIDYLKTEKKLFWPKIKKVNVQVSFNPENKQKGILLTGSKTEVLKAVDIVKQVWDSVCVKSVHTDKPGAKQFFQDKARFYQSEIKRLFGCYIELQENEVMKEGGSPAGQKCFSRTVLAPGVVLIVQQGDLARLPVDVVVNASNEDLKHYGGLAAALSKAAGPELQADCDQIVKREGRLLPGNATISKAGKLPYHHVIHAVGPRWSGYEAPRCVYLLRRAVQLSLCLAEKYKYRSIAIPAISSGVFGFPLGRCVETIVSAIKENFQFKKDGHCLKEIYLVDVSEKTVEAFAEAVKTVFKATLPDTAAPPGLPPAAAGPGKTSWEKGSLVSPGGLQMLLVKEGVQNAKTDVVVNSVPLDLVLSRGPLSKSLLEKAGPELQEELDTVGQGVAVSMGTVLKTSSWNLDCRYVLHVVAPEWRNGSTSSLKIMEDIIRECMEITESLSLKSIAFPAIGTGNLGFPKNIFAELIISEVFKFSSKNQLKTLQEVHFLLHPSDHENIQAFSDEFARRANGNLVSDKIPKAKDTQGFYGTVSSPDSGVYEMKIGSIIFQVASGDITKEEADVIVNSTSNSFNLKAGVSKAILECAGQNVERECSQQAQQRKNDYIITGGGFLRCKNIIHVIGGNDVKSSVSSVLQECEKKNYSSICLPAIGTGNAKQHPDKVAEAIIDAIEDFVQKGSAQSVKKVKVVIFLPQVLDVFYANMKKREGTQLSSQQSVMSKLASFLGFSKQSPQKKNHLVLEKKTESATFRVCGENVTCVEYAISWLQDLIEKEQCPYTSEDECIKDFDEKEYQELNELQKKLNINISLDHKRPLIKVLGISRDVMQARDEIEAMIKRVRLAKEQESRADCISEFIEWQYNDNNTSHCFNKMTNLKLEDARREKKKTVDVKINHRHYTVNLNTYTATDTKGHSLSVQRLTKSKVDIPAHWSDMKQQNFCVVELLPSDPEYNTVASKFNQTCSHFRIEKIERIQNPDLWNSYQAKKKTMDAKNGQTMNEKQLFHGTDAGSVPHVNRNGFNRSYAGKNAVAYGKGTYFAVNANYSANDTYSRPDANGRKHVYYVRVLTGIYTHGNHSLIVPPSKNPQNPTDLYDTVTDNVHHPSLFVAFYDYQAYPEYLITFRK

Compound	DC50
O=C1CCC(N2C(=O)c3cccc4c(N5CCN(CCN6CCC(COc7cc(F)c8c(=O)[nH]c(CSC9CCOCC9)nc8c7)CC6)CC5)ccc2c34)C(=O)N1 (stereo not drawn) [Example 103, 3-(6-(4-(2-(4-(((5-fluoro-4-oxo-2-(((tetrahydro-2H-pyran-4-yl)thio)methyl)-3,4-dihydroquinazolin-7-yl)oxy)methyl)piperidin-1-yl)ethyl)piperazin-1-yl)-2-oxobenzo[cd]indol-1(2H)-yl)piperidine-2,6-dione]	< 30 nM
O=C1CCC(Nc2ccc(F)c(N3CCN(CCN4CCC(COc5cc(F)c6c(=O)[nH]c(CSC7CCOCC7)nc6c5)CC4)CC3)c2)C(=O)N1 (stereo not drawn) [Example 104, 3-((4-fluoro-3-(4-(2-(4-(((5-fluoro-4-oxo-2-(((tetrahydro-2H-pyran-4-yl)thio)methyl)-3,4-dihydroquinazolin-7-yl)oxy)methyl)piperidin-1-yl)ethyl)piperazin-1-yl)phenyl)amino)piperidine-2,6-dione]	< 30 nM
O=C1CCC(Nc2ccc(N3CCN(CCN4CCC(COc5cc(F)c6c(=O)[nH]c(CC7CC7)nc6c5)CC4)CC3)c(F)c2)C(=O)N1 (stereo not drawn) [Example 105, 3-((4-(4-(2-(4-(((2-(cyclopropylmethyl)-5-fluoro-4-oxo-3,4-dihydroquinazolin-7-yl)oxy)methyl)piperidin-1-yl)ethyl)piperazin-1-yl)-3-fluorophenyl)amino)piperidine-2,6-dione formate]	< 30 nM
O=C1CCC(Nc2ccc(N3CCN(CCN4CCC(COc5cc(F)c6c(=O)[nH]c(CC7CCC7)nc6c5)CC4)CC3)c(F)c2)C(=O)N1 (stereo not drawn) [Example 106, 3-((4-(4-(2-(4-(((2-(cyclobutylmethyl)-5-fluoro-4-oxo-3,4-dihydroquinazolin-7-yl)oxy)methyl)piperidin-1-yl)ethyl)piperazin-1-yl)-3-fluorophenyl)amino)piperidine-2,6-dione formate]	< 30 nM
O=C1CCC(Nc2ccc(OC3CCC(CN4CCC(COc5cc(F)c6c(=O)[nH]c(CSC7CCOCC7)nc6c5)CC4)CC3)cc2)C(=O)N1 (stereo not drawn) [Example 111]	< 30 nM
O=C1CCC(Nc2ccc(N3CCC(N4CCC(COc5cc(F)c6c(=O)[nH]c(CSC7CCOCC7)nc6c5)CC4)CC3)c(F)c2)C(=O)N1 (stereo not drawn) [Example 113]	< 30 nM
O=C1CCC(Nc2ccc(N3CCC(N4CC(N5CCC(COc6cc(F)c7c(=O)[nH]c(CSC8CCOCC8)nc7c6)CC5)C4)CC3)c(F)c2)C(=O)N1 (stereo not drawn) [Example 116, 3-((3-fluoro-4-(4-(3-(4-(((5-fluoro-4-oxo-2-(((tetrahydro-2H-pyran-4-yl)thio)methyl)-3,4-dihydroquinazolin-7-yl)oxy)methyl)piperidin-1-yl)azetidin-1-yl)piperidin-1-yl)phenyl)amino)piperidine-2,6-dione]	< 30 nM
O=C1CCC(Nc2ccc(N3CCC(N4CCC(COc5cc(F)c6c(=O)[nH]c(CCC7CCOCC7)nc6c5)CC4)CC3)c(F)c2)C(=O)N1 (stereo not drawn) [Example 117, 3-((3-fluoro-4-(4-(((5-fluoro-4-oxo-2-(2-(tetrahydro-2H-pyran-4-yl)ethyl)-3,4-dihydroquinazolin-7-yl)oxy)methyl)-[1,4′-bipiperidin]-11′-yl)phenyl)amino)piperidine-2,6-dione]	< 30 nM
O=C1CCC(Nc2ccc(N3CCN(CCN4CCC(COc5cc(F)c6c(=O)[nH]c(CSC7CCOCC7)nc6c5)CC4)CC3)cn2)C(=O)N1 (stereo not drawn) [Example 119]	< 30 nM
O=C1CCC(Nc2ccc(N3CCC(N4CCN(CCOc5cc(F)c6c(=O)[nH]c(CSC7CCOCC7)nc6c5)CC4)CC3)cc2)C(=O)N1 (stereo not drawn) [Example 125]	< 30 nM
O=C1CCC(Nc2ccc(N3CCN(C4CCN(CCOc5cc(F)c6c(=O)[nH]c(CSC7CCOCC7)nc6c5)CC4)CC3)c(F)c2)C(=O)N1 (stereo not drawn) [Example 126]	< 30 nM
O=C1CCC(Nc2ccc(N3CC(N4CCC(CCOc5cc(F)c6c(=O)[nH]c(CSC7CCOCC7)nc6c5)CC4)C3)cc2)C(=O)N1 (stereo not drawn) [Example 127, 3-((4-(3-(4-(2-((5-fluoro-4-oxo-2-(((tetrahydro-2H-pyran-4-yl)thio)methyl)-3,4-dihydroquinazolin-7-yl)oxy)ethyl)piperidin-1-yl)azetidin-1-yl)phenyl)amino)piperidine-2,6-dione]	< 30 nM
O=C1CCC(Nc2ccc(N3CCC4(CC3)CC(N3CCC(COc5cc(F)c6c(=O)[nH]c(CSC7CCOCC7)nc6c5)CC3)C4)cc2)C(=O)N1 (stereo not drawn) [Example 128]	< 30 nM
O=C1CCC(Nc2ccc(N3CCN(CCN4CCC(CNc5cc6nc(CSC7CCOCC7)[nH]c(=O)c6c(F)c5F)CC4)CC3)cc2)C(=O)N1 (stereo not drawn) [Example 129, 3-((4-(4-(2-(4-(((5,6-difluoro-4-oxo-2-(((tetrahydro-2H-pyran-4-yl)thio)methyl)-3,4-dihydroquinazolin-7-yl)amino)methyl)piperidin-1-yl)ethyl)piperazin-1-yl)phenyl)amino)piperidine-2,6-dione formate]	< 30 nM

Now from value to compound:

DC50	Compound
< 30 nM	Cn1nc(N2CCC(=O)NC2=O)c2cccc(N3CCN(CCN4CCC(COc5cc(F)c6c(=O)[nH]c(CSC7CCOCC7)nc6c5)CC4)CC3)c21 [Example 101, 1-(7-(4-(2-(4-(((5-fluoro-4-oxo-2-(((tetrahydro-2H-pyran-4-yl)thio)methyl)-3,4-dihydroquinazolin-7-yl)oxy)methyl)piperidin-1-yl)ethyl)piperazin-1-yl)-1-methyl-1H-indazol-3-yl)dihydropyrimidine-2,4(1H,3H)-dione]
< 30 nM	Cn1nc(C2CCC(=O)NC2=O)c2ccc(N3CCN(CCN4CCC(COc5cc(F)c6c(=O)[nH]c(CSC7CCOCC7)nc6c5)CC4)CC3)cc21 (stereo not drawn) [Example 102, 3-(6-(4-(2-(4-(((5-Fluoro-4-oxo-2-(((tetrahydro-2H-pyran-4-yl)thio)methyl)-3,4-dihydroquinazolin-7-yl)oxy)methyl)piperidin-1-yl)ethyl)piperazin-1-yl)-1-methyl-1H-indazol-3-yl)piperidine-2,6-dione]
< 30 nM	O=C1CCC(Nc2ccc(N3CCN(CCN4CCC(COc5cc(F)c6c(=O)[nH]c(CC7CCCC7)nc6c5)CC4)CC3)c(F)c2)C(=O)N1 (stereo not drawn) [Example 107, 3-((4-(4-(2-(4-(((2-(cyclopentylmethyl)-5-fluoro-4-oxo-3,4-dihydroquinazolin-7-yl)oxy)methyl)piperidin-1-yl)ethyl)piperazin-1-yl)-3-fluorophenyl)amino)piperidine-2,6-dione formate]
< 30 nM	O=C1CCC(Nc2cnc(N3CCN(CCN4CCC(COc5cc(F)c6c(=O)[nH]c(CSC7CCOCC7)nc6c5)CC4)CC3)c(F)c2)C(=O)N1 (stereo not drawn) [Example 108, 3-((5-fluoro-6-(4-(2-(4-(((5-fluoro-4-oxo-2-(((tetrahydro-2H-pyran-4-yl)thio)methyl)-3,4-dihydroquinazolin-7-yl)oxy)methyl)piperidin-1-yl)ethyl)piperazin-1-yl)pyridin-3-yl)amino)piperidine-2,6-dione]
< 30 nM	O=C1CCC(Nc2ccc(OC3CC(CN4CCC(COc5cc(F)c6c(=O)[nH]c(CCC7CCOCC7)nc6c5)CC4)C3)cc2)C(=O)N1 (stereo not drawn) [Example 110]
< 30 nM	O=C1CCC(Nc2ccc(N3CCC(N4CCC(COc5cc(F)c6c(=O)[nH]c(CSC7CCOCC7)nc6c5)CC4)CC3)cc2)C(=O)N1 (stereo not drawn) [Example 112, 3-((4-(4-(((5-fluoro-4-oxo-2-(((tetrahydro-2H-pyran-4-yl)thio)methyl)-3,4-dihydroquinazolin-7-yl)oxy)methyl)-[1,4′-bipiperidin]-1′-yl)phenyl)amino)piperidine-2,6-dione]
< 30 nM	O=C1CCC(Nc2ccc(N3CCC(N4CCC(COc5cc(F)c6c(=O)[nH]c(CCC7CCOCC7)nc6c5)CC4)CC3)cc2)C(=O)N1 (stereo not drawn) [Example 114]
< 30 nM	O=C1CCC(Nc2ccc(N3CCC(N4CCC(COc5cc(F)c6c(=O)[nH]c(COC7CCOCC7)nc6c5)CC4)CC3)cc2)C(=O)N1 (stereo not drawn) [Example 115]
< 30 nM	O=C1CCC(Nc2ccc(N3CCC(CCN4CCC(COc5cc(F)c6c(=O)[nH]c(CSC7CCOCC7)nc6c5)CC4)CC3)cc2)C(=O)N1 (stereo not drawn) [Example 118, 3-((4-(4-(2-(4-(((5-fluoro-4-oxo-2-(((tetrahydro-2H-pyran-4-yl)thio)methyl)-3,4-dihydroquinazolin-7-yl)oxy)methyl)piperidin-1-yl)ethyl)piperidin-1-yl)phenyl)amino)piperidine-2,6-dione]
< 30 nM	O=C1CCC(Nc2ccc(OC3CCN(CCN4CCC(COc5cc(F)c6c(=O)[nH]c(CSC7CCOCC7)nc6c5)CC4)CC3)cc2)C(=O)N1 (stereo not drawn) [Example 120, 3-((4-((1-(2-(4-(((5-fluoro-4-oxo-2-(((tetrahydro-2H-pyran-4-yl)thio)methyl)-3,4-dihydroquinazolin-7-yl)oxy)methyl)piperidin-1-yl)ethyl)piperidin-4-yl)oxy)phenyl)amino)piperidine-2,6-dione]
